Data reported in patent US20080038838A1, “Dioxin-Binding Material and Method of Detecting or Quantifying Dioxin” (Towa Kagaku Co., Ltd., priority 2003, published 2008).
Values joined by “and” are separate entries in the source; they are usually repeats but may differ in a detail not shown here. Equal entries are not always repeated. “Also recorded” adds a separate entry of the source. Square brackets hold non-standard residues; d marks the D form. Ends that are not written are not given here. Cha = N[C@@H](CC1CCCCC1)C(=O)O; Phg = N[C@H](C(=O)O)c1ccccc1; Nva = CCC[C@H](N)C(=O)O

How the values were obtained:
[1] = method of competitive dioxin binding on bead (2,3,7,8-TeCDD); conditions: for capability of detecting 2,3,7,8-TeCDD compared with DB2: 30% 1,4-dioxane solvent
Protocol: (§1) 1 ml of a screening solvent containing 4 nM NBD-labeled dichlorophenol and 0-100 nM of a substance to be detected was prepared in a glass vial, and then three dioxin-binding peptide beads were put into the screening solvent. The resulting mixture was incubated, with mild shaking, overnight at room temperature, and then fluorescent microscope images thereof were recorded. The average fluorescence intensity of each bead was calculated from the recorded images. Calculation of the average fluorescence intensity was performed with an image analysis/measurement software, “Image-Pro Plus” (Planetron, Inc.). When competitive binding of the dichlorophenol with a dioxin occurs, the fluorescence intensity of each bead decreases depending on the concentration of the dioxin. Such a method of measuring the dioxin concentration utilizing the quenching phenomenon of the beads was termed “the method of competitive dioxin binding on bead”.
The DB2 peptide was evaluated for affinity to dioxins by the method of competitive dioxin binding on bead. FIGS. 6 (A) and 6 (B) show the results of tests conducted in a solvent containing 30% 1,4-dioxane. The relationship between dioxin concentration and average fluorescence intensity is plotted in FIG. 6 (A). As shown in the figure, declining sigmoid curves, which are characteristic of the competitive binding, were obtained. The curves were fitted using the four-parameter logistic equation, y=(a−d)/(1+(x/c)^b)+d, which is an empirical equation typically employed in competitive ELISA (Eiji Ishikawa, “Enzyme Immunoassay (3rd Edition)”, IGAKU-SHOIN).
(§2) The quenching ratio was calculated using the equation shown below. The beads were evaluated for affinity with the substances detected based on the values of quenching ratios.
(§3) quenching ratio=(fluorescence intensity 1−fluorescence intensity 2)/fluorescence intensity 1×100(%)
The binding constants of the DB2 peptide were calculated using the results of the above equation. Fitting was performed based on the theoretical equation for one-to-one binding of a receptor with a ligand as shown below:
(§4) Tests were conducted on the above-mentioned peptides by the method of competitive dioxin binding on bead described in Example 2, using a 30% 1,4-dioxane solvent. […] All the four kinds of single residue-substituted peptides were evaluated for dioxin binding capability by the method of competitive dioxin binding on bead.

[2] = fluorescent staining of peptide beads with NBD-labeled dichlorophenol; assay type: binding; conditions: 30% 1,4-dioxane solvent (FIG. 10)
Protocol: About 2.5 million peptide beads were used for screening, the number being equal to the number of combinations of all the sequences of peptides comprising 5 amino acid residues. The primary screening was conducted in a screening solvent (a 10 mM phosphate buffer containing 20% 1,4-dioxane (pH: 8)) containing 4 nM NBD-labeled dichlorophenol. 20 ml of the buffer solution was first mixed with about 50 mg of the peptide beads, and the mixture was subsequently incubated overnight, with mild shaking, in a petri dish at room temperature. A fraction of fluorescently stained peptide beads observed by a fluorescent microscope was collected with a micropipette. These peptide beads were transferred into a micro test tube containing 50 or 100% 1,4-dioxane, and were then incubated overnight at room temperature, i.e., washing with 50 or 100% dioxane overnight at room temperature. Peptide beads which were unable to be washed, on which the NBD-labeled dichlorophenol was unspecifically adsorbed, were excluded. Peptide beads that could be washed were re-stained with 1 nM NBD-labeled dichlorophenol. In order to measure the fluorescence intensity, fluorescent microscope images of the peptide beads were recorded with a digital camera (FIG. 4).
as §1
A library of twenty-one kinds of single amino acid-substituted peptides shown in FIG. 8 was constructed in order to evaluate the importance of each amino acid of the obtained oligopeptides, and to optimize the sequences. […]
as §4

[3] = secondary screening of peptide beads: fluorescence decrease by competition with 2,3,7-TriCDD; assay type: binding; conditions: 1 nM NBD-labeled dichlorophenol, 10 mM phosphate buffer pH 8 with 20% 1,4-dioxane
From the text: A peptide library was constructed by split-and-pool synthesis, one of the typical techniques of combinatorial chemistry, using beads for peptide solid-phase synthesis. According to the present method, a peptide of one kind of sequence is synthesized on a single bead. […] Primary screening involved screening of fluorescently stained peptide beads, using a composite (FIG. 3) obtained by labeling 3,4-dichlorophenol, which has an analogous structure to dioxins, with NBD as a fluorescent material.
About 2.5 million peptide beads were used for screening, the number being equal to the number of combinations of all the sequences of peptides comprising 5 amino acid residues. […] In order to measure the fluorescence intensity, fluorescent microscope images of the peptide beads were recorded with a digital camera (FIG. 4).
The aforementioned washable peptide beads were put into 1 ml of a screening solvent containing 1 nM NBD-labeled dichlorophenol and 10 or 100 nM 2,3,7-trichlorodibenzo-p-dioxin (2,3,7-TriCDD). The mixture was incubated overnight with mild shaking at room temperature, and was then transferred onto a glass petri dish, and fluorescent microscope images thereof were recorded. The obtained images were compared with the images recorded in the previous test so as to screen decreased beads. […]

[4] = method of competitive dioxin binding on bead (2,3,7-TriCDD)
Protocol: 1 ml of a screening solvent containing 4 nM NBD-labeled dichlorophenol and 0-100 nM of a substance to be detected was prepared in a glass vial, and then three dioxin-binding peptide beads were put into the screening solvent. The resulting mixture was incubated, with mild shaking, overnight at room temperature, and then fluorescent microscope images thereof were recorded. The average fluorescence intensity of each bead was calculated from the recorded images. Calculation of the average fluorescence intensity was performed with an image analysis/measurement software, “Image-Pro Plus” (Planetron, Inc.). When competitive binding of the dichlorophenol with a dioxin occurs, the fluorescence intensity of each bead decreases depending on the concentration of the dioxin. […]
The DB2 peptide was evaluated for affinity to dioxins by the method of competitive dioxin binding on bead. […] The relationship between dioxin concentration and average fluorescence intensity is plotted in FIG. 6 (A). […]
as §2, §3
The binding constants of the DB2 peptide were calculated using the results of the above equation. […]

[5] = 30% 1,4-dioxane, 4 nM NBD-labeled dichlorophenol, 0-100 nM substance
[6] = peptide beads, solvent containing 30% 1,4-dioxane, fit of quenching ratio to one-to-one binding equation

| Substance | capability of detecting 2,3,7,8-TeCDD compared with DB2 [1] | fluorescence intensity when stained, compared with DB2 peptide [2] | 2,3,7,8-TeCDD concentration that can be detected ([1]; 30% 1,4-dioxane) | quenching by competition with 10 nM 2,3,7-TriCDD [3] | other results |
| --- | --- | --- | --- | --- | --- |
| Cha Leu Asp Gln Val ([Cha]LDQV) [SEQ ID No. 5] | equal to or more than that of DB2 | equal to or greater than that of the DB2 peptide |  |  |  |
| Phe Leu Asp Gln Leu (FLDQL) [SEQ ID No. 23] | equal to or more than that of DB2 | equal to or greater than that of the DB2 peptide |  |  |  |
| Phe Leu Asp Gln Nva (FLDQ[Nva]) [SEQ ID No. 24] | equal to or more than that of DB2 | equal to or greater than that of the DB2 peptide |  |  |  |
| Phe Leu Asp Gln Phg (FLDQ[Phg]) [SEQ ID No. 22] | equal to or more than that of DB2 | equal to or greater than that of the DB2 peptide | 0.15 nM and 0.05 ng/ml |  | detection sensitivity to 2,3,7,8-TeCDD relative to DB2 ([1]; 30% dioxane solvent): about ten times greater than that of DB2; also recorded: about ten times higher than that of DB2 |
| Phe-Leu-Asp-Gln-Ile (FLDQI) [DB1] | equal to or more than that of DB2 |  |  | confirmed |  |
| Phe-Leu-Asp-Gln-Val (FLDQV) [DB2] |  |  | 1 nM and about 0.3 ng/ml | confirmed | concentration-dependent quenching by 2,3,7,8-TeCDD [1, 5]: Concentration-dependent quenching was observed; affinity (binding constant Ka) for 2,3,7,8-TeCDD [1, 6]: 1.7e+09 M⁻¹; concentration-dependent quenching by 2,3,7-TriCDD [4, 5]: Concentration-dependent quenching was observed; affinity (binding constant Ka) for 2,3,7-TriCDD [4, 6]: 2e+08 M⁻¹ |
